# Assay results reported in ChEMBL document CHEMBL1144227, “2,2'-Pyridoin derivatives protect HL-60 cells against oxidative stress” (Bioorg Med Chem Lett, 2008).
# Calls of active or inactive are those of the source. No cut-off for these calls is given here.
# Tested on: HL-60
# Assay: Toxicity against human HL-60 cells at 60 uM after 24 hrs by trypan blue exclusion assay
# Assay type: cell-based
# Conditions: hl-60, 24 h
row,Compound,Activity
1,COc1ccc(/C(O)=C(\O)c2ccc(OC)cn2)nc1,Non-toxic
2,Cc1ccc(/C(O)=C(\O)c2ccc(C)cn2)nc1,Non-toxic

# Tested on: HL-60
# Assay: Toxicity against human HL-60 cells at 100 uM after 24 hrs by trypan blue exclusion assay
# Assay type: cell-based
# Conditions: hl-60, 24 h
row,Compound,Activity
1,COc1cccc(C(=O)C(=O)c2cccc(OC)n2)n1,Non-toxic
2,COc1cccc(/C(O)=C(\O)c2cccc(OC)n2)n1,Non-toxic
3,Cc1cccc(/C(O)=C(\O)c2cccc(C)n2)n1,Non-toxic
4,Cc1ccc(C(=O)C(=O)c2ccc(C)cn2)nc1,Non-toxic
5,O/C(=C(/O)c1ccccn1)c1ccccn1,Non-toxic
6,O=C(C(=O)c1ccccn1)c1ccccn1,Non-toxic
7,Cc1cc(C(C)(C)C)c(O)c(C(C)(C)C)c1 [BUTYLATED HYDROXYTOLUENE],Toxic
8,COc1ccc(C(=O)C(=O)c2ccc(OC)cn2)nc1,Non-toxic
9,Cc1cccc(C(=O)C(=O)c2cccc(C)n2)n1,Non-toxic

# Tested on: HL-60
# Assay: Cytoprotective activity against hydrogen peroxide-induced cell death in human HL-60 cells assessed as cell viability at 30 uM after 24 hrs by trypan blue exclusion assay
# Assay type: functional
# Conditions: not given
row,Compound,Activity
1,COc1cccc(C(=O)C(=O)c2cccc(OC)n2)n1,Active
2,Cc1ccc(C(=O)C(=O)c2ccc(C)cn2)nc1,Active
3,O=C(C(=O)c1ccccn1)c1ccccn1,Active
4,COc1ccc(C(=O)C(=O)c2ccc(OC)cn2)nc1,inactive
5,Cc1cccc(C(=O)C(=O)c2cccc(C)n2)n1,Active

# Same assay, conditions: HL-60, 24 h, read-out: Activity
row,Compound,viability at 30 µM [%]
1,COc1cccc(/C(O)=C(\O)c2cccc(OC)n2)n1,51.9
2,Cc1cccc(/C(O)=C(\O)c2cccc(C)n2)n1,51.9
3,O/C(=C(/O)c1ccccn1)c1ccccn1,42.1
4,COc1ccc(/C(O)=C(\O)c2ccc(OC)cn2)nc1,51.9
5,Cc1ccc(/C(O)=C(\O)c2ccc(C)cn2)nc1,51.9
6,O=C1O[C@H]([C@@H](O)CO)C(O)=C1O [ASCORBIC ACID],37.9

# Tested on: HL-60
# Assay: Radical scavenging activity in human HL-60 cells assessed as reduction of hydrogen peroxide-induced ROS generation at 30 uM after 1 hr by 2',7'-dichlorofluorescein diacetate based flow cytometry
# Assay type: functional, cell-based
# Conditions: not given
row,Compound,Activity
1,COc1cccc(/C(O)=C(\O)c2cccc(OC)n2)n1,Active
2,Cc1cccc(/C(O)=C(\O)c2cccc(C)n2)n1,Active
3,O/C(=C(/O)c1ccccn1)c1ccccn1,Active
4,COc1ccc(/C(O)=C(\O)c2ccc(OC)cn2)nc1,Active
5,Cc1ccc(/C(O)=C(\O)c2ccc(C)cn2)nc1,Active
6,O=C1O[C@H]([C@@H](O)CO)C(O)=C1O [ASCORBIC ACID],Active

# Tested on: HL-60
# Assay: Radical scavenging activity in human HL-60 cells assessed as reduction of hydrogen peroxide-induced ROS generation at 30 uM administered 3 hrs before H2O2 challenge measured after 1 hr by 2',7'-dichlorofluorescein diacetate based flow cytometry
# Assay type: functional, cell-based
# Conditions: not given
row,Compound,Activity
1,O=C1O[C@H]([C@@H](O)CO)C(O)=C1O [ASCORBIC ACID],Active

# Tested on: not listed separately
# Assay: Antioxidant activity assessed as inhibition of lipid peroxidation
# Assay type: functional
# Conditions: not given
row,Compound,Activity
1,COc1cccc(/C(O)=C(\O)c2cccc(OC)n2)n1,Active
2,COc1ccc(/C(O)=C(\O)c2ccc(OC)cn2)nc1,Active
3,Cc1ccc(/C(O)=C(\O)c2ccc(C)cn2)nc1,Active
